This is an account of results in patent US6617350B2, “Inhibitors of aspartyl protease” (priority 1999, dated 2003).

SMILES strings stand for the structures. Read-outs that look alike come from different tables or passages of the source. A value given as a limit tells only on which side of the number the result lay.

Assay [1] addresses HIV-1 protease (Human immunodeficiency virus type 1 group M subtype B, UniProt P04585). As to the kind of experiment: biochemical.
In assay [2] the test system is HIV-1 (strain IIIB). As to the kind of experiment: microbe, parasite or virus in culture. In kind it is cell-based. To be noted: Human immunodeficiency virus 1, IIIB, MT4, Table 12; anti-viral potency in MT-4 cells; read-out: IC50.
[3] abbreviates: Table 12, HIV-1 protease, read-out: Ki.

As usually defined, the Ki is the dissociation constant of the complex between target and ligand, obtained from inhibition or displacement. A word on the IC50: it is the concentration that gives 50% inhibition. Regarding `COc1ccc(S(=O)(=O)N(CC(O)[C@H](Cc2ccccc2)NC(=O)OC2COC3OCCC23)CC(C)(C)CCC(C)=NO)cc1` (stereo partly drawn) [Compound 227, (3R,3aS,6aR)-Hexahydrofuro[2,3-b]furan-3-yl N-((1S,2R)-1-benzyl-3-(2,2-dimethyl-5-hydroxyiminohexyl)[(4-methoxyphenyl)sulfonyl]amino-2-hydroxypropyl)carbamate], in assay [1] (setting [3]), the Ki was less than 1 nM. Also, the IC50 in assay [2] was not above 100 nM.

In the case of `CNC(=O)CNC(=O)NCCC(C)(C)CN(CC(O)C(Cc1ccccc1)NC(=O)OC1COC2OCCC12)S(=O)(=O)c1ccc(OC)cc1` [Compound 228, (3R,3aS,6aR)hexahydrofuro[2,3-b]furan-3-yl N-(1S,2R)-1-benzyl-2-hydroxy-4-[(4-methoxyphenyl)sulfonyl]-6,6-dimethyl-10,13-dioxo-4,9,11,14-tetraazapentadec-1-ylcarbamate and (3S,3aR,6aS)hexahydrofuro[2,3-b]furan-3-yl N-(1S,2R)-1-benzyl-2-hydroxy-4-[(4-methoxyphenyl)sulfonyl]-6,6-dimethyl-10,13-dioxo-4,9,11,14-tetraazapentadec-1-ylcarbamate], in assay [1] (setting [3]), the Ki was less than 1 nM. Further, the IC50 in assay [2] is 100 to 500 nM.

As to `CCOC(=O)NCCCC(C)(C)CN(CC(O)C(Cc1ccccc1)NC(=O)OC1COC2OCCC12)S(=O)(=O)c1ccc(OC)cc1` [Compound 230, (3R,3aS,6aR)hexahydrofuro[2,3-b]furan-3-yl N-((1S,2R)-1-benzyl-3-5-[(ethoxycarbonyl)amino]-2,2-dimethylpentyl[(4-methoxyphenyl)sulfonyl]amino-2-hydroxypropyl)carbamate and (3S,3aR,6aS)hexahydrofuro[2,3-b]furan-3-yl N-((1S,2R)-1-benzyl-3-5-[(ethoxycarbonyl)amino]-2,2-dimethylpentyl[(4-methoxyphenyl)sulfonyl]amino-2-hydroxypropyl)carbamate], the Ki in assay [1] (setting [3]) was less than 1 nM. The IC50 in assay [2] is not above 100 nM.

As for `COc1ccc(S(=O)(=O)N(CC(O)[C@H](Cc2ccccc2)NC(=O)OC2COC3OCCC23)CC(C)(C)CCOC(N)=O)cc1` (stereo partly drawn) [Compound 235, (3R,3aS,6aR)-Hexahydrofuro[2,3-b]furan-3-yl N-((1S,2R)-1-benzyl-3-(4-carbamoyloxy-2,2-dimethylbutyl)[(4-methoxyphenyl)sulfonyl]amino-2-hydroxypropyl)carbamate], the Ki in assay [1] (setting [3]) was less than 1 nM. Besides, the IC50 in assay [2] was not above 100 nM.

On to `COc1ccc(S(=O)(=O)N(CC(O)C(Cc2ccccc2)NC(=O)OC2COC3OCCC23)CC(C)(C)CCNC(=O)N2CCOCC2)cc1` [Compound 236, (3R,3aS,6aR)hexahydrofuro[2,3-b]furan-3-yl N-((1S,2R)-1-benzyl-3-2,2-dimethyl-4-[(morpholinocarbonyl)amino]butyl[(4-methoxyphenyl)sulfonyl]amino-2-hydroxypropyl)carbamate and (3S,3aR,6aS)hexahydrofuro[2,3-b]furan-3-yl N-((1S,2R)-1-benzyl-3-2,2-dimethyl-4-[(morpholinocarbonyl)amino]butyl[(4-methoxyphenyl)sulfonyl]amino-2-hydroxypropyl)carbamate], for which the Ki in assay [1] (setting [3]) was less than 1 nM. Besides, in assay [2], the IC50 was not above 100 nM.

Regarding `COc1ccc(S(=O)(=O)N(CC(O)C(Cc2ccccc2)NC(=O)OC2COC3OCCC23)CC(C)(C)CCCNC(=O)N2CCOCC2)cc1` [Compound 237, (3R,3aS,6aR)hexahydrofuro[2,3-b]furan-3-yl N-((1S,2R)-1-benzyl-3-2,2-dimethyl-5-[(morpholinocarbonyl)amino]pentyl[(4-methoxyphenyl)sulfonyl]amino-2-hydroxypropyl)carbamate and 3S,3aR,6aS)hexahydrofuro[2,3-b]furan-3-yl N-((1S,2R)-1-benzyl-3-2,2-dimethyl-5-[(morpholinocarbonyl)amino]pentyl[(4-methoxyphenyl)sulfonyl]amino-2-hydroxypropyl)carbamate], in assay [1] (setting [3]), the Ki was less than 1 nM. Also, the IC50 in assay [2] was not above 100 nM.

On to `COc1ccc(S(=O)(=O)N(CC(O)C(Cc2ccccc2)NC(=O)OC2COC3OCCC23)CC(C)(C)CCN(C)C)cc1` [Compound 238, (3R,3aS,6aR)hexahydrofuro[2,3-b]furan-3-yl N-((1S,2R)-1-benzyl-3-[4-(dimethylamino)-2,2-dimethylbutyl][(4-methoxyphenyl)sulfonyl]amino-2-hydroxypropyl)carbamate and (3S,3aR,6aS)hexahydrofuro[2,3-b]furan-3-yl N-((1S,2R)-1-benzyl-3-[4-(dimethylamino)-2,2-dimethylbutyl][(4-methoxyphenyl)sulfonyl]amino-2-hydroxypropyl)carbamate]], for which the Ki in assay [1] (setting [3]) was less than 1 nM. For the same molecule, in assay [2], the IC50 is 100 to 500 nM.

Take `CC(=O)CCC(C)(C)CN(CC(O)[C@H](Cc1ccccc1)NC(=O)OC1COC2OCCC12)S(=O)(=O)c1ccc2c(c1)OCO2` (stereo partly drawn) [Compound 240, (3R,3aS,6aR)-Hexahydrofuro[2,3-b]furan-3-yl N-((1S,2R)-1-benzyl-3-(2,2-dimethyl-5-oxohexyl)[(3,4-methylenedioxyphenyl)sulfonyl]amino-2-hydroxypropyl)carbamate]: in assay [1] (setting [3]), the inhibitory constant (Ki) was less than 1 nM. In addition, the IC50 in assay [2] was not above 100 nM.

Consider `CNc1cccc(S(=O)(=O)N(C[C@@H](O)[C@H](Cc2ccccc2)NC(=O)O[C@H]2CO[C@H]3OCC[C@H]32)CC(C)(C)CCCCN)c1` [Compound 241, (3R,3aS,6aR)hexahydrofuro[2,3-b]furan-3-yl N-[(1S,2R)-3-((6-amino-2,2-dimethylhexyl)[3-(methylamino)phenyl]sulfonylamino)-1-benzyl-2-hydroxypropyl]carbamate], for which the Ki in assay [1] (setting [3]) was less than 1 nM. The IC50 in assay [2] is 100 to 500 nM.

Regarding `COc1ccc(S(=O)(=O)N(CC(O)C(Cc2ccccc2)NC(=O)OC2COC3OCCC23)CC(C)(C)CCNC(=O)OC(C)C)cc1` [Compound 242, (3R,3aS,6aR)hexahydrofuro[2,3-b]furan-3-yl N-((1S,2R)-1-benzyl-2-hydroxy-3-4-[(isopropoxycarbonyl)amino]-2,2-dimethylbutyl[(4-methoxyphenyl)sulfonyl]aminopropyl)carbamate and (3S,3aR,6aS)hexahydrofuro[2,3-b]furan-3-yl N-((1S,2R)-1-benzyl-2-hydroxy-3-4-[(isopropoxycarbonyl)amino]-2,2-dimethylbutyl[(4-methoxyphenyl)sulfonyl]aminopropyl)carbamate], the Ki in assay [1] is less than 1 nM. The IC50 in assay [2] was not above 100 nM.

In assay [1], `COc1ccc(S(=O)(=O)N(CC(O)C(Cc2ccccc2)NC(=O)OC2COC3OCCC23)CC(C)(C)CCCNC(=O)OC(C)C)cc1` [Compound 243, (3R,3aS,6aR)hexahydrofuro[2,3-b]furan-3-yl N-((1S,2R)-1-benzyl-2-hydroxy-3-5-[(isopropoxycarbonyl)amino]-2,2-dimethylpentyl[(4-methoxyphenyl)sulfonyl]aminopropyl)carbamate and (3S,3aR,6aS)hexahydrofuro[2,3-b]furan-3-yl N-((1S,2R)-1-benzyl-2-hydroxy-3-5-[(isopropoxycarbonyl)amino]-2,2-dimethylpentyl[(4-methoxyphenyl)sulfonyl]aminopropyl)carbamate] registered a Ki of less than 1 nM. Besides, in assay [2], the 50% inhibitory concentration (IC50) is not above 100 nM.
